Where a name gives a salt, the structure may show the parent alone. Read-outs that look alike come from different tables or passages of the source.
Legend:
human CB2 receptors = molecular target: T1, human CB2 receptors (Homo sapiens, UniProt P34972); experiment: Affinity for human CB2 receptors: inhibition of [3H]-CP55940 binding to membranes of transfected CHO-K1 cells
T1 construct: expressed in transfected cells; membranes prepared from them
Experimental: Study of the Affinity of the Compounds for Human Cannabinoid CB2 Receptors
The affinity of the compounds of the invention for human CB2 receptors was determined by measuring inhibition of [^3H]-CP55940 binding to membrane preparations produced from transfected CHO-K1 cells.
CHO-K1 cells stably expressing human CB2 receptors were cultured in RPMI 1640 medium supplemented with 10% foetal calf serum, 2 mM glutamine, 100 U/ml penicillin, 0.1 mg/ml streptomycin and 0.5 mg/ml G418. The cells were collected using 0.5 mM EDTA and centrifuged at 500 g for 5 min at 4° C. The cell pellet was resuspended in phosphate buffered saline (PBS) and centrifuged at 500 g for 5 min at 4° C. The pellet was resuspended in 50 mM tris buffer pH 7.4 and centrifuged at 500 g for 5 min at 4° C. The cells were lysed by sonication and centrifuged at 39,000 g for 10 min at 4° C. The pellet was resuspended in 50 mM tris buffer pH 7.4 and centrifuged at 50,000 g for 10 min at 4° C. The membranes obtained in this final pellet were stored at −80° C.
Competitive inhibition of the binding of [^3H]-CP55940 to CB2 receptors was determined in duplicate in 96-well polypropylene plates. Cell membranes (10 μg of protein/well) were incubated with [^3H]-CP55940 (1 nM) for 60 min at 25° C. in 50 mM Tris-HCl buffer, pH 7.4, containing 0.1% bovine serum albumin (BSA), 5 mM MgCl2, and 50 μg/ml of bacitracin.
Bound [^3H]-CP55940 was separated from free [^3H]-CP55940 by filtration through GF/C fibre glass filter plates (Unifilter, Packard) pre-impregnated with 0.1% polyethylenimine (P.E.I.), using a Filtermate 196 (Packard). The filters were washed with 50 mM Tris-HCl buffer, pH 7.4 at 0-4° C. and the radioactivity present was determined using a counter (Packard Top Count).
Specific binding was obtained by subtracting non-specific binding (determined in the presence of 0.1 μM WIN55212-2) from total binding. The data were analysed by computer-assisted nonlinear regression (MDL). For each test, the IC50 value was converted to a Ki value (inhibition constant) using the Cheng-Prusoff equation.
where [L] is the concentration of the radioligand used in the assay and Kd is the dissociation constant of the radioligand at equilibrium.

[1] = [3H]-CP55940 (1 nM) competition, CHO-K1 membranes, IC50 converted to Ki by Cheng-Prusoff, read-out: affinity for the CB2 receptor

T1 sequence (P34972 whole entry): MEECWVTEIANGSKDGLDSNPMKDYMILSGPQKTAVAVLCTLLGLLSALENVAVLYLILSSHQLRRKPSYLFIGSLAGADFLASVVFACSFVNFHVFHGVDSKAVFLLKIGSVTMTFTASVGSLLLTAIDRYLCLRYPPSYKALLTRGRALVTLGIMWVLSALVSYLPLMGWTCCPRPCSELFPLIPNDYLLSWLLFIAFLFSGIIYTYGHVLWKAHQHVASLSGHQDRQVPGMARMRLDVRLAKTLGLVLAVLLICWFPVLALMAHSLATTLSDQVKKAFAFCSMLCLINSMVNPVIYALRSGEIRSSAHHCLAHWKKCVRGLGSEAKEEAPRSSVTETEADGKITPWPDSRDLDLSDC

Row | Compound | Ki (human CB2 receptors; [1]) | Ki (human CB2 receptors) | further results
1 | CN(C)C1(c2nc(-c3ccc(Oc4ccc([N+](=O)[O-])cc4)cc3)cs2)CCOCC1 (as salt: hydrochloride) [Example 32, N,N-dimethyl-4-{4-[4-(4-nitrophenoxy)phenyl]-1,3-thiazol-2-yl}tetrahydro-2H-pyran-4-amine hydrochloride] | – | – | melting point: 167 to 169 °C
2 | COc1c(Cl)cc(-c2csc(C3(N(C)C)CCOCC3)n2)cc1C(C)(C)C [Example 13, {4-[4-(3-tert-butyl-5-chloro-4-methoxyphenyl)-1,3-thiazol-2-yl]tetrahydro-2H-pyran-4-yl}dimethylamine hydrochloride] | – | 100 to 500 nM | –
3 | CC(C)(C)c1cc(-c2csc(C3(N4CCCCC4)CCOCC3)n2)cc(C(C)(C)C)c1O [Example 20, 2,6-di-tert-butyl-4-[2-(4-piperidin-1-yltetrahydro-2H-pyran-4-yl)-1,3-thiazol-4-yl]phenol hydrochloride] | – | ≤ 100 nM | –
4 | COc1c(C(C)(C)C)cc(-c2nc(C3(N(C)C)CCOCC3)sc2C)cc1C(C)(C)C [Example 25, {4-[4-(3,5-di-tert-butyl-4-methoxyphenyl)-5-methyl-1,3-thiazol-2-yl]tetrahydro-2H-pyran-4-yl}dimethylamine hydrochloride] | – | 100 to 500 nM | –
5 | CN1CCC(c2nc(-c3cc(C(C)(C)C)c(O)c(C(C)(C)C)c3)cs2)(N(C)C)CC1 (as salt: hydrochloride) [Example 23, 2,6-di-tert-butyl-4-{2-[4-(dimethylamino)-1-methylpiperidin-4-yl]-1,3-thiazol-4-yl}phenol hydrochloride] | – | – | melting point: 236 to 238 °C
6 | CN(C)C1(c2nc(-c3ccc(Oc4ccccc4)cc3)cs2)CCOCC1 (as salt: hydrochloride) [Example 16, N,N-dimethyl-4-[4-(4-phenoxyphenyl)-1,3-thiazol-2-yl]tetrahydro-2H-pyran-4-amine hydrochloride] | – | – | melting point: 213 to 223.2 °C
7 | CN(C)C1(c2nc(-c3cc(C(C)(C)C)c(O)c(C(C)(C)C)c3)cs2)CCSCC1 [Example 6, 2,6-di-tert-butyl-4-{2-[4-(dimethylamino)tetrahydro-2H-thiopyran-4-yl]-1,3-thiazol-4-yl}phenol hydrochloride] | – | ≤ 100 nM | –
8 | CN(C)C1(c2nc(-c3ccc(Oc4cccc(Cl)c4C#N)cc3)cs2)CCOCC1 (as salt: hydrochloride) | – | – | melting point: 127 to 130 °C
9 | CN(C)C1(c2nc(-c3cc(C(C)(C)C)c(O)c(C(C)(C)C)c3)co2)CCOCC1 [Example 15, 2,6-di-tert-butyl-4-{2-[4-(dimethylamino)tetrahydro-2H-pyran-4-yl]-1,3-oxazol-4-yl}phenol hydrochloride] | – | ≤ 100 nM | –
10 | COc1c(C(C)(C)C)cc(-c2csc(C3(N(C)C)CCOCC3)n2)cc1C(C)(C)C (as salt: hydrochloride) [Example 2, {4-[4-(3,5-di-tert-butyl-4-methoxyphenyl)-1,3-thiazol-2-yl]tetrahydro-2H-pyran-4-yl}dimethylamine hydrochloride] | – | – | melting point: 215 to 216.7 °C
11 | COc1ccc(-c2csc(C3(N(C)C)CCOCC3)n2)cc1C(C)(C)C (as salt: hydrochloride) [Example 14, {4-[4-(3-tert-butyl-4-methoxyphenyl)-1,3-thiazol-2-yl]tetrahydro-2H-pyran-4-yl}dimethylamine hydrochloride] | – | – | melting point: 232.7 to 233.5 °C
12 | CN(C)C1(c2nc(-c3cc(C(C)(C)C)c(O)c(C(C)(C)C)c3)cs2)CCOC1 (centres unmarked) [Example 7, 2,6-di-tert-butyl-4-{2-[3-(dimethylamino)tetrahydrofuran-3-yl]-1,3-thiazol-4-yl}phenol hydrochloride] | – | 100 to 500 nM | –
13 | CN(C)C1(c2nc(-c3ccc(Cc4ccccc4)cc3)cs2)CCOCC1 (as salt: hydrochloride) [Example 29, {4-[4-(4-benzylphenyl)-1,3-thiazol-2-yl]tetrahydro-2H-pyran-4-yl}dimethylamine hydrochloride] | – | – | melting point: 228.4 to 229.5 °C
14 | COc1c(C(C)(C)C)cc(-c2csc(C3(N(C)C)CCOCC3)n2)cc1C(C)(C)C [Example 2, {4-[4-(3,5-di-tert-butyl-4-methoxyphenyl)-1,3-thiazol-2-yl]tetrahydro-2H-pyran-4-yl}dimethylamine hydrochloride] | – | ≤ 100 nM | –
15 | CN(C)C1(c2nc(-c3ccc(Sc4ccccc4)cc3)cs2)CCOCC1 (as salt: hydrochloride) [Example 33, N,N-dimethyl-4-{4-[4-(phenylthio)phenyl]-1,3-thiazol-2-yl}tetrahydro-2H-pyran-4-amine hydrochloride] | – | – | melting point: 215 to 218.8 °C
16 | COc1ccc(-c2csc(C3(N(C)C)CCOCC3)n2)cc1C(C)(C)C [Example 14, {4-[4-(3-tert-butyl-4-methoxyphenyl)-1,3-thiazol-2-yl]tetrahydro-2H-pyran-4-yl}dimethylamine hydrochloride] | – | 500 to 1000 nM | –
17 | CC(C)(C)c1cc(-c2csc(C3(N4CCOCC4)CCOCC3)n2)cc(C(C)(C)C)c1O [Example 21, 2,6-di-tert-butyl-4-[2-(4-morpholin-4-yltetrahydro-2H-pyran-4-yl)-1,3-thiazol-4-yl]phenol] | – | 100 to 500 nM | –

Further lines, with some results ahead:

Row | Ki (human CB2 receptors; [1]) | Compound | Ki (human CB2 receptors) | further results
18 | 100 to 500 nM | CNC1(c2nc(-c3cc(C(C)(C)C)c(O)c(C(C)(C)C)c3)cs2)CCOCC1 [Example 19, 2,6-di-tert-butyl-4-{2-[4-(methylamino)tetrahydro-2H-pyran-4-yl]-1,3-thiazol-4-yl}phenol hydrochloride] | – | –
19 | 500 to 1000 nM | CN(C)C1(c2nc(-c3ccc(Cc4ccccc4)cc3)cs2)CCOCC1 [Example 29, {4-[4-(4-benzylphenyl)-1,3-thiazol-2-yl]tetrahydro-2H-pyran-4-yl}dimethylamine hydrochloride] | – | –
20 | 500 to 1000 nM | CCN(CC)c1ccc(-c2csc(C3(N(C)C)CCOCC3)n2)cc1 [Example 28, (4-{4-[4-(diethylamino)phenyl]-1,3-thiazol-2-yl}tetrahydro-2H-pyran-4-yl)dimethylamine hydrochloride] | – | –
21 | 500 to 1000 nM | CN(C)C1(c2nc(-c3ccc(Sc4ccccc4)cc3)cs2)CCOCC1 [Example 33, N,N-dimethyl-4-{4-[4-(phenylthio)phenyl]-1,3-thiazol-2-yl}tetrahydro-2H-pyran-4-amine hydrochloride] | – | –
22 | ≤ 100 nM | CN(C)C1(c2nc(-c3cc(C(C)(C)C)c(O)c(C(C)(C)C)c3)cs2)CCOCC1 [Example 4, 2,6-di-tert-butyl-4-{2-[4-(dimethylamino)tetrahydro-2H-pyran-4-yl]-1,3-thiazol-4-yl}phenol hydrochloride] | – | –
23 | 100 to 500 nM | CCNC1(c2nc(-c3cc(C(C)(C)C)c(O)c(C(C)(C)C)c3)cs2)CCOCC1 [Example 17, 2,6-di-tert-butyl-4-{2-[4-(ethylamino)tetrahydro-2H-pyran-4-yl]-1,3-thiazol-4-yl}phenol] | – | –
24 | 100 to 500 nM | CN(C)C1(c2nc(-c3cc(C(C)(C)C)cc(C(C)(C)C)c3)cs2)CCOCC1 [Example 11, {4-[4-(3,5-di-tert-butylphenyl)-1,3-thiazol-2-yl]tetrahydro-2H-pyran-4-yl}dimethylamine hydrochloride] | – | –
25 | 100 to 500 nM | CN(C)C1(c2nc(-c3ccc(C(C)(C)C)cc3)cs2)CCOCC1 [Example 8, {4-[4-(4-tert-butylphenyl)-1,3-thiazol-2-yl]tetrahydro-2H-pyran-4-yl}dimethylamine hydrochloride] | – | –
26 | ≤ 100 nM | CCN(CC)C1(c2nc(-c3cc(C(C)(C)C)c(O)c(C(C)(C)C)c3)cs2)CCOCC1 [Example 18, 2,6-di-tert-butyl-4-{2-[4-(diethylamino)tetrahydro-2H-pyran-4-yl]-1,3-thiazol-4-yl}phenol hydrochloride] | – | –
27 | 100 to 500 nM | CN(C)C1(c2nc(-c3ccc(Oc4ccccc4)cc3)cs2)CCOCC1 [Example 16, N,N-dimethyl-4-[4-(4-phenoxyphenyl)-1,3-thiazol-2-yl]tetrahydro-2H-pyran-4-amine hydrochloride] | – | –
28 | 100 to 500 nM | CN(C)C1(c2nc(-c3ccc(Oc4ccc([N+](=O)[O-])cc4)cc3)cs2)CCOCC1 [Example 32, N,N-dimethyl-4-{4-[4-(4-nitrophenoxy)phenyl]-1,3-thiazol-2-yl}tetrahydro-2H-pyran-4-amine hydrochloride] | – | –
29 | 100 to 500 nM | CN1CCC(c2nc(-c3cc(C(C)(C)C)c(O)c(C(C)(C)C)c3)cs2)(N(C)C)CC1 [Example 23, 2,6-di-tert-butyl-4-{2-[4-(dimethylamino)-1-methylpiperidin-4-yl]-1,3-thiazol-4-yl}phenol hydrochloride] | – | –
